Converted amounts (≈) assume the structure as drawn.
Assays:
Format in all cases: functional
[1] = test system: Heliothis virescens; test: Insecticidal activity against tobacco budworm assessed per larva
[2] = test system: Spodoptera exigua; test: Insecticidal activity against beet armyworm assessed as mortality per larva after 5 days
[3] = test system: Bemisia tabaci; test: Insecticidal activity against sweet potato whitefly assessed as larval survival after 13 days; conditions: 312 h
[4] = test system: Aphis gossypii; test: Insecticidal activity against cotton aphid assessed as count of nonwinged stage live aphid after 72 hrs with 24 hrs of photoperiod prior to grading
[5] = test system: Trichoplusia ni; test: Insecticidal activity against cabbage looper assessed as mortality per larva after 5 days
[6] = test system: Myzus persicae; test: Insecticidal activity against green peach aphid assessed as count of nonwinged stage live aphid after 72 hrs with 24 hrs of photoperiod prior to grading
[7] = test system: Tetranychus urticae; test: Insecticidal activity against two-spotted spinder mites assessed as count of live mites after 4 days with low light condition; conditions: 96 h

Compound | LC50 [1] [µg] | LC50 [2] [µg] | LC50 [3] [µg/mL] | LC50 [4] [µg/mL] | LC50 [5] [µg] | LC50 [6] [µg/mL] | LC50 [7] [µg/mL]
CO[C@@H]1[C@@H](OC)[C@H](C)O[C@@H](O[C@H]2C[C@H]3[C@@H]4C=C5C(=O)[C@H](C)[C@@H](O[C@H]6CC[C@H](N(C)C)[C@@H](C)O6)CCC[C@H](C6CCC6)OC(=O)C[C@H]5[C@@H]4C=C(C)[C@@H]3C2)[C@@H]1OC | 0.016 | 0.385 | 13.5 (≈ 17.5 µM) | 15 (≈ 19.4 µM) | 0.01 | > 50 | –
CO[C@@H]1[C@@H](OC)[C@H](C)O[C@@H](O[C@H]2C[C@H]3[C@@H]4C=C5C(=O)[C@H](C)[C@@H](O[C@H]6CC[C@H](N(C)C)[C@@H](C)O6)CCC[C@H](C(C)C)OC(=O)C[C@H]5[C@@H]4C=C[C@@H]3C2)[C@@H]1OC [21-DESETHYL-21-ISOPROPYLSPINOSYN A] | 0.02 | 0.123 | – | – | 0.022 | – | –
CCC[C@H]1CCC[C@H](O[C@H]2CC[C@H](N(C)C)[C@@H](C)O2)[C@@H](C)C(=O)C2=C[C@@H]3[C@@H](C=C[C@@H]4C[C@@H](O[C@@H]5O[C@@H](C)[C@H](OC)[C@@H](OC)[C@H]5OC)C[C@@H]34)[C@@H]2CC(=O)O1 [21-DESETHYL-21-N-PROPYLSPINOSYN A] | 0.025 | 0.031 | > 50 | 27.3 (≈ 36.6 µM) | 0.004 | > 50 | < 50
CC[C@H]1CCC[C@H](O[C@H]2CC[C@H](N(C)C)[C@@H](C)O2)[C@@H](C)C(=O)C2=C[C@@H]3[C@@H](C=C(C)[C@@H]4C[C@@H](O[C@@H]5O[C@@H](C)[C@H](OC)[C@@H](OC)[C@H]5OC)C[C@@H]34)[C@@H]2CC(=O)O1 [SPINOSYN D] | – | – | 1.7 (≈ 2.28 µM) | 50 (≈ 67 µM) | – | 50 (≈ 67 µM) | 19 (≈ 25.5 µM)
CO[C@@H]1[C@@H](OC)[C@H](C)O[C@@H](O[C@@H]2C[C@H]3CC[C@@H]4[C@@H](C=C5C(=O)[C@H](C)[C@@H](O[C@H]6CC[C@H](N(C)C)[C@@H](C)O6)CCC[C@H](C6CCC6)OC(=O)C[C@H]54)[C@@H]3C2)[C@@H]1OC [5,6-DIHYDRO-21-DESETHYL-21-CYCLOBUTYLSPINOSYN A] | 0.02 | 0.134 | 0.7 (≈ 0.921 µM) | 1.7 (≈ 2.24 µM) | 0.013 | > 50 | –
CO[C@@H]1[C@@H](OC)[C@H](C)O[C@@H](O[C@H]2C[C@H]3[C@@H]4C=C5C(=O)[C@H](C)[C@@H](O[C@H]6CC[C@H](N(C)C)[C@@H](C)O6)CCC[C@H](C6CC6)OC(=O)C[C@H]5[C@@H]4C=C[C@@H]3C2)[C@@H]1OC [21-DESETHYL-21-CYCLOPROPYLSPINOSYNS A] | 0.125 | 1 | > 50 | 46 (≈ 61.8 µM) | 0.157 | > 50 | > 50
CO[C@@H]1[C@@H](OC)[C@H](C)O[C@@H](O[C@H]2C[C@H]3[C@@H]4C=C5C(=O)[C@H](C)[C@@H](O[C@H]6CC[C@H](N(C)C)[C@@H](C)O6)CCC[C@H](C)OC(=O)C[C@H]5[C@@H]4C=C[C@@H]3C2)[C@@H]1OC [SPINOSYN E] | – | – | 3.9 (≈ 5.43 µM) | > 50 | – | > 50 | 10 (≈ 13.9 µM)
CC[C@H]1CCC[C@H](O[C@H]2CC[C@H](N(C)C)[C@@H](C)O2)[C@@H](C)C(=O)C2=C[C@@H]3[C@@H](C=C[C@@H]4C[C@@H](O[C@@H]5O[C@@H](C)[C@H](OC)[C@@H](OC)[C@H]5OC)C[C@@H]34)[C@@H]2CC(=O)O1 [SPINOSYN A] | 0.03 | 0.63 | 20 (≈ 27.3 µM) | 65 (≈ 88.8 µM) | 0.03 | 50 (≈ 68.3 µM) | 5.3 (≈ 7.24 µM)
CO[C@@H]1[C@@H](OC)[C@H](C)O[C@@H](O[C@H]2C[C@H]3[C@@H]4C=C5C(=O)[C@H](C)[C@@H](O[C@H]6CC[C@H](N(C)C)[C@@H](C)O6)CCC[C@H](C6CCC6)OC(=O)C[C@H]5[C@@H]4C=C[C@@H]3C2)[C@@H]1OC [21-DESETHYL-21-CYCLOBUTYLSPINOSYNS A] | 0.013 | >1 | 55 (≈ 72.6 µM) | 3 (≈ 3.96 µM) | 0.124 | > 50 | > 50

Source: ChEMBL document CHEMBL1158124, “Engineering of the spinosyn PKS: directing starter unit incorporation” (2006)
